In ChEMBL document CHEMBL2176988 (J Med Chem, 2012):

Tests used:
[1] = molecular target: T1, Neuronal acetylcholine receptor; alpha3/beta4 (Homo sapiens, UniProt P30926+P32297); assay: Displacement of [3H]epibatidine from human alpha3beta4 nAChR expressed in CHO cells after 2 hrs by liquid scintillation counting; format: cell-based
[2] = molecular target: T2, Neuronal acetylcholine receptor; alpha4/beta2 (Homo sapiens, UniProt P17787+P43681); assay: Agonist activity at alpha4beta2 nAChR in human SH-EP1 cells assessed as calcium flux by calcium4-based FLIPR assay; format: functional, cell-based
[3] = molecular target: T1, Neuronal acetylcholine receptor; alpha3/beta4; assay: Agonist activity at human alpha3beta4 nAChR expressed in CHO cells assessed as calcium flux by calcium4-based FLIPR assay; format: functional, cell-based
[4] = molecular target: Neuronal acetylcholine receptor; alpha4/beta2 (Rattus norvegicus, UniProt P09483+P12390); assay: Displacement of [3H]epibatidine from alpha4beta2 nAChR in Sprague-Dawley rat cortex after 2 hrs by liquid scintillation counting
[5] = molecular target: T2, Neuronal acetylcholine receptor; alpha4/beta2; assay: Agonist activity at alpha4beta2 nAChR in human SH-EP1 cells assessed as calcium flux by calcium4-based FLIPR assay relative to nicotine; format: functional, cell-based
[6] = molecular target: T1, Neuronal acetylcholine receptor; alpha3/beta4; assay: Agonist activity at human alpha3beta4 nAChR expressed in CHO cells assessed as calcium flux by calcium4-based FLIPR assay relative to nicotine; format: functional, cell-based
[7] = molecular target: T2, Neuronal acetylcholine receptor; alpha4/beta2; assay: Displacement of [3H]nicotine from alpha4beta2 nAChR in human SH-EP1 cells after 2 hrs by liquid scintillation assay; format: cell-based
[8] = molecular target: Neuronal acetylcholine receptor subunit alpha-7 (Homo sapiens, UniProt P36544); assay: Displacement of [3H]epibatidine from human alpha7 nAChR expressed in CHO cells after 2 hrs by liquid scintillation counting; format: cell-based
Chain of Neuronal acetylcholine receptor subunit alpha-7 (P36544 whole entry): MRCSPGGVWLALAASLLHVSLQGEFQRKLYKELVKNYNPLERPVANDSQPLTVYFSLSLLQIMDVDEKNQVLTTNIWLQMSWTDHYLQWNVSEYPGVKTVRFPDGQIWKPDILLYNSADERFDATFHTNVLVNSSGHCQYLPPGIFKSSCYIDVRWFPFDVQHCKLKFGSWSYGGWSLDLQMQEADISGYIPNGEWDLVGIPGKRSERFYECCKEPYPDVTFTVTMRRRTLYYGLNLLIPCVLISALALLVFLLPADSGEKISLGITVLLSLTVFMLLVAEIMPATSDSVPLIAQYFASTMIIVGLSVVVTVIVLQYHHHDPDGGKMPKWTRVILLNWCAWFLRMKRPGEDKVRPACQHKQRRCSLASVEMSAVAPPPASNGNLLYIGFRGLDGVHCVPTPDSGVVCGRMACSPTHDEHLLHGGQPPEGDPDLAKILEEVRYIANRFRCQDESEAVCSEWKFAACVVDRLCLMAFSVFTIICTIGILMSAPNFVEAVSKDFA

T2 sequence (P17787 whole entry): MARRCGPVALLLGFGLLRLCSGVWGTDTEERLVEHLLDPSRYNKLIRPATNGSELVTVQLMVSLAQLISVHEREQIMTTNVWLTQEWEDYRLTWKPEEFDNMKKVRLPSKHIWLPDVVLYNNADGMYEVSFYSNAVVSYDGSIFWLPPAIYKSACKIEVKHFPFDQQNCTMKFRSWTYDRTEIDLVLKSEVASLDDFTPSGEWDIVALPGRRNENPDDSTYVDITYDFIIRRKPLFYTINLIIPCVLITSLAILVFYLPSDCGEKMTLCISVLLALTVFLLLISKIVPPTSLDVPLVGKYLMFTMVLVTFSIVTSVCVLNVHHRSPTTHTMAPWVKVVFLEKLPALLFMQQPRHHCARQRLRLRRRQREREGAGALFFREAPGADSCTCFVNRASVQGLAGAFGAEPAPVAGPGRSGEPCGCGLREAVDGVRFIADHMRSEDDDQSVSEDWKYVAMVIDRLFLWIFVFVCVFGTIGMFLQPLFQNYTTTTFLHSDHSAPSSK
T2 sequence (P43681 whole entry): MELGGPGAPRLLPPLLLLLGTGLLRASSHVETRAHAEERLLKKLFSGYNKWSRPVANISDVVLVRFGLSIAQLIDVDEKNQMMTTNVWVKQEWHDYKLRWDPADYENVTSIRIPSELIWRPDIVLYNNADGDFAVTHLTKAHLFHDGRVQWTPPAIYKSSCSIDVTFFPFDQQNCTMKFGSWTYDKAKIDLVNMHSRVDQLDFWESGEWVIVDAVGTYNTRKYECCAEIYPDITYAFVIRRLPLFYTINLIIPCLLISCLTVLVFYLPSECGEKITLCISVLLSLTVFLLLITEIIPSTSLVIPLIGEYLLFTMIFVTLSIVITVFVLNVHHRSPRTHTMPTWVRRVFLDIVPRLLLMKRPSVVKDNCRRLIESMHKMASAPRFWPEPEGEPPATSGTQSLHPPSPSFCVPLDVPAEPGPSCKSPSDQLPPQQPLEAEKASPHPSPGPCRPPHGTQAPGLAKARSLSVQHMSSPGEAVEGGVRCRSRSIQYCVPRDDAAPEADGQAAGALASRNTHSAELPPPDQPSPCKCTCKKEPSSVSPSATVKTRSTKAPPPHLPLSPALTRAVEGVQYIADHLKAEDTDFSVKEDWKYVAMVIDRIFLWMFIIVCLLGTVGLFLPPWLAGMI
Chain of Neuronal acetylcholine receptor; alpha4/beta2 (Rattus norvegicus, UniProt P09483+P12390) (P09483 whole entry): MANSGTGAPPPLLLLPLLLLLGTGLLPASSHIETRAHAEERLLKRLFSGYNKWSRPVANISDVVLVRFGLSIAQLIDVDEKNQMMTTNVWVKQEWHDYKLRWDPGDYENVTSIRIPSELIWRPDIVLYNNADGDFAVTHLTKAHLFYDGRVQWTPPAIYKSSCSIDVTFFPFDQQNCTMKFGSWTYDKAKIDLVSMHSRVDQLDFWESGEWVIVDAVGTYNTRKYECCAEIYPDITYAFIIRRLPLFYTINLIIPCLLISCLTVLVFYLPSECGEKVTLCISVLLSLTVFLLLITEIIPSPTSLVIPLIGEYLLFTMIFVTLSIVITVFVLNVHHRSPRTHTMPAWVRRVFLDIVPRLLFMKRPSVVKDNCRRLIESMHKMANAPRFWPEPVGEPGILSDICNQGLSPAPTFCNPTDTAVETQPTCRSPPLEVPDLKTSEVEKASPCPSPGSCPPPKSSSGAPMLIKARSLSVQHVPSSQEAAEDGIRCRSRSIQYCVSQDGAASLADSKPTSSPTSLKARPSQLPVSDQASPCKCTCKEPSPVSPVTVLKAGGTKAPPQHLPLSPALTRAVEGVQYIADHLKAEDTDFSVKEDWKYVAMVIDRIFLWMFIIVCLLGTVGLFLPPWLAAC
Chain of Neuronal acetylcholine receptor; alpha4/beta2 (Rattus norvegicus, UniProt P09483+P12390) (P12390 whole entry): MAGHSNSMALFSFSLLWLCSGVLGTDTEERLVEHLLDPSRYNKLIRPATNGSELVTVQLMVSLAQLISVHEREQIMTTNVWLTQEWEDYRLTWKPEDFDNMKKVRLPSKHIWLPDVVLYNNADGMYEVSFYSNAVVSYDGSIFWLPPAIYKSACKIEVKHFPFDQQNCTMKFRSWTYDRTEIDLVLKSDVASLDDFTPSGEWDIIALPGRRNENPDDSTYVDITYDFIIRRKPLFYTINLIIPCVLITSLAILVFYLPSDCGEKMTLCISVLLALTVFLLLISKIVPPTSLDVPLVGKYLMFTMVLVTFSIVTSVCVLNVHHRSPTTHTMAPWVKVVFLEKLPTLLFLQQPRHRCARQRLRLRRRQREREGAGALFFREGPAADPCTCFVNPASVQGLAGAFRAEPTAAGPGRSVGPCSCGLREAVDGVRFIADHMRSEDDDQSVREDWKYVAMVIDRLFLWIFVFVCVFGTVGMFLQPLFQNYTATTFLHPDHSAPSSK
T1 sequence (P30926 whole entry): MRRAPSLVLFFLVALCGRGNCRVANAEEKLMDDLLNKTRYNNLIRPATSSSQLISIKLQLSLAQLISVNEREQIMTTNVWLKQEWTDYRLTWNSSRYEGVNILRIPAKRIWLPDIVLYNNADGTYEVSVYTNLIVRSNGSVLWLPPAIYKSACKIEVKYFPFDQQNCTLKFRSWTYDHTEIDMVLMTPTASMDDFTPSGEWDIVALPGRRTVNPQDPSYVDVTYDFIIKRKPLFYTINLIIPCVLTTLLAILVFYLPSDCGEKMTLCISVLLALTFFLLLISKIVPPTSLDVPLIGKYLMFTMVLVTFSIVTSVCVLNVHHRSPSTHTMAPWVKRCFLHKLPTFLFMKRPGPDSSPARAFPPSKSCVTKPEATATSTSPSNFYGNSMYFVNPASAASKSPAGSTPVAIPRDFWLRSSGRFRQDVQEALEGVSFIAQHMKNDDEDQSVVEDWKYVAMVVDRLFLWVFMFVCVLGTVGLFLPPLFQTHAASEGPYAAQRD
T1 sequence (P32297 whole entry): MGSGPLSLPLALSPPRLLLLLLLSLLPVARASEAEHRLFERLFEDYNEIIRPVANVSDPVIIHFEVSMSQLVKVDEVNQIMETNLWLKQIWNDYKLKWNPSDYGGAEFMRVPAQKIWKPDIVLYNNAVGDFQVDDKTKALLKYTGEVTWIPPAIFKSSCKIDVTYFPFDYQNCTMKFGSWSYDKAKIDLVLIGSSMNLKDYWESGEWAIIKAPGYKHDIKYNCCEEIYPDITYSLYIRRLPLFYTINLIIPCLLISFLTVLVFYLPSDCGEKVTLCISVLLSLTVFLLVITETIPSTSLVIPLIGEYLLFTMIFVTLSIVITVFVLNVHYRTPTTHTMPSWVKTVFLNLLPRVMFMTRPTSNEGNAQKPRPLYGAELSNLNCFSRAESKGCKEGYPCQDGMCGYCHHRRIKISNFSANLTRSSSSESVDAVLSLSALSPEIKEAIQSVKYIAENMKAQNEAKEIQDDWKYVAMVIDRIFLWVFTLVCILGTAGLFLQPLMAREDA

O=C(c1ccc(F)o1)N1C[C@H]2CN[C@@H](C2)C1
Ki [1]: 0.6 µM
EC50 [2]: 1.7 µM
EC50 [3]: 4 µM
Ki [4]: 120 nM
Emax [5]: 120%
Emax [6]: 120%
Ki [7]: 12 nM
Ki [8]: 1.6 µM

O=C(C1CC1)N1C[C@@H]2CN[C@H](C2)C1
Ki [1]: 0.2 µM
EC50 [2]: 0.45 µM
EC50 [3]: 1.8 µM
Ki [4]: 22 nM
Emax [5]: 130%
Emax [6]: 180%
Ki [7]: 1 nM
Ki [8]: 0.21 µM

O=C(c1ccc(Br)o1)N1C[C@@H]2CN[C@H](C2)C1
Ki [1]: 1.5 µM
EC50 [2]: 12 µM
EC50 [3]: 16 µM
Ki [4]: 57 nM
Emax [5]: 27%
Emax [6]: 61%
Ki [7]: 9 nM
Ki [8]: 8.2 µM

O=C(c1ccco1)N1CC2CNCC(C2)C1
Ki [1]: 8.1 µM
EC50 [2]: 1.9 µM
EC50 [3]: 43 µM
Ki [4]: 29 nM
Emax [5]: 65%
Emax [6]: 57%
Ki [7]: 20 nM
Ki [8]: 8.2 µM

O=C(c1ccccc1)N1CC2CNCC(C2)C1
Ki [1]: 100 µM
EC50 [2]: 100 µM
EC50 [3]: 28 µM
Ki [4]: 1700 nM
Emax [5]: 8%
Emax [6]: 8%
Ki [7]: 920 nM
Ki [8]: 34 µM

Cc1ccc(C(=O)N2CC3CNCC3C2)o1 (configuration not stated)
Ki [1]: > 10 µM
EC50 [2]: 22 µM
EC50 [3]: 57 µM
Ki [4]: 230 nM
Emax [5]: 44%
Emax [6]: 7%
Ki [7]: 42 nM
Ki [8]: 8.2 µM

COc1ccc(C(=O)N2CC3CNCC3C2)cc1 (configuration not stated)
Ki [1]: 8.4 µM
EC50 [2]: 43 µM
EC50 [3]: 31 µM
Ki [4]: 140 nM
Emax [5]: 9%
Emax [6]: 22%
Ki [7]: 26 nM
Ki [8]: 100 µM

O=C(c1ccccc1)N1CC2CNCC2C1 (configuration not stated)
Ki [1]: 15 µM
EC50 [2]: 36 µM
EC50 [3]: 28 µM
Ki [4]: 1.1 nM
Emax [5]: 9%
Emax [6]: 18%
Ki [7]: 200 nM
Ki [8]: 20 µM

O=C(c1ccccn1)N1CC2CNCC2C1 (configuration not stated)
Ki [1]: 21 µM
EC50 [2]: 34 µM
EC50 [3]: 51 µM
Ki [4]: 340 nM
Emax [5]: 44%
Emax [6]: 3%
Ki [7]: 250 nM
Ki [8]: 100 µM

O=C(c1ccc(F)o1)N1CC2CNCC2C1 (configuration not stated)
Ki [1]: 12 µM
EC50 [2]: 5.8 µM
EC50 [3]: 31 µM
Ki [4]: 51 nM
Emax [5]: 140%
Emax [6]: 55%
Ki [7]: 8 nM
Ki [8]: 1.2 µM

O=C(c1ccco1)N1CC2CNCC2C1 (configuration not stated)
Ki [1]: 72 µM
EC50 [2]: 4.5 µM
EC50 [3]: 42 µM
Ki [4]: 53 nM
Emax [5]: 170%
Emax [6]: 32%
Ki [8]: 5.9 µM

O=C(c1cnco1)N1CC2CNCC2C1 (configuration not stated)
Ki [1]: 11 µM
EC50 [2]: 4.2 µM
EC50 [3]: 35 µM
Ki [4]: 130 nM
Emax [5]: 110%
Emax [6]: 11%
Ki [7]: 110 nM
Ki [8]: 7.6 µM

O=C(c1cccnc1)N1CC2CNCC2C1 (configuration not stated)
Ki [1]: 4.4 µM
EC50 [2]: 30 µM
EC50 [3]: 29 µM
Ki [4]: 160 nM
Emax [5]: 58%
Emax [6]: 55%
Ki [7]: 490 nM
Ki [8]: 20 µM

O=C(c1ccncc1)N1CC2CNC(C2)C1 (configuration not stated)
Ki [1]: 1.5 µM
EC50 [2]: 42 µM
EC50 [3]: 9.2 µM
Ki [4]: 25 nM
Emax [5]: 8%
Emax [6]: 110%
Ki [8]: 1.3 µM

O=C(c1ccco1)N1CC2CNC(C2)C1 (configuration not stated)
Ki [1]: 1.7 µM
EC50 [2]: 2.6 µM
EC50 [3]: 6.9 µM
Emax [5]: 65%
Emax [6]: 34%
Ki [8]: 7.8 µM

O=C(c1ccoc1)N1CC2CNCC2C1 (configuration not stated)
Ki [1]: 4.8 µM
EC50 [2]: 5.8 µM
EC50 [3]: 35 µM
Emax [5]: 110%
Emax [6]: 31%
Ki [7]: 19 nM
Ki [8]: 100 µM

O=C(c1cc(F)co1)N1CC2CNCC2C1 (configuration not stated)
Ki [1]: 8.3 µM
EC50 [2]: 1.4 µM
EC50 [3]: 36 µM
Emax [5]: 130%
Emax [6]: 17%
Ki [7]: 32 nM
Ki [8]: > 10 µM

N#Cc1ccc(C(=O)N2CC3CNCC3C2)o1 (configuration not stated)
Ki [1]: 4.8 µM
EC50 [2]: 24 µM
EC50 [3]: 61 µM
Emax [5]: 90%
Emax [6]: 14%
Ki [7]: 53 nM
Ki [8]: > 10 µM
